What was measured:
[1] = DRUGMATRIX: Glutamate, AMPA radioligand binding (ligand: [3H] AMPA); format: cell membranes, Rattus norvegicus, Wistar, Cerebral cortex, Membrane; details: Not Active = under 50% inhibition at 10 µM
[2] = target: C-C chemokine receptor type 5 (Homo sapiens, UniProt P51681); format: cell membranes, Membrane; details: hek293; further: in other assays of this panel Not Active means under 50% inhibition at 10 µM
[3] = DRUGMATRIX: Potassium Channel [KATP] radioligand binding (ligand: [3H] Glyburide); format: cell membranes, Membrane; details: hit-t15; Not Active = under 50% inhibition at 10 µM
[4] = target: T1, Thromboxane-A synthase (Homo sapiens, UniProt P24557); assay: biochemical; format: tissue-based, Platelet; details: platelet;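 further: enzyme inhibition assay with PGH2 supplied as substrate; in other assays of this panel Not Active means under 50% inhibition at 10 µM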
T1 sequence (P24557 whole entry): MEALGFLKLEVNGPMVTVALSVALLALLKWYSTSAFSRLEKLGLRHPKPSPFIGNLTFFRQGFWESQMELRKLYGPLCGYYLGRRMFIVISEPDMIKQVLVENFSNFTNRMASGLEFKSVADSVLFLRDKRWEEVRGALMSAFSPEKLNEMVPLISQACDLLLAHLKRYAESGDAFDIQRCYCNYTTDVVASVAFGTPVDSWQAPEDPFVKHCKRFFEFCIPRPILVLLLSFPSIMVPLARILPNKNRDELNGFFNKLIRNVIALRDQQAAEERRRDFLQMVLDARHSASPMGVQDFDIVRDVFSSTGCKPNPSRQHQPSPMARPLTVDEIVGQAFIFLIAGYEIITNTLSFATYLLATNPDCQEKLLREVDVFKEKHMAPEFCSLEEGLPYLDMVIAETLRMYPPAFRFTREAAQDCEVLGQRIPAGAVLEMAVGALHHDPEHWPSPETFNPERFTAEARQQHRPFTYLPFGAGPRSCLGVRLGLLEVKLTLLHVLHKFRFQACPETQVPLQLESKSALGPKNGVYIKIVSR

[5] = target: T2, 5-hydroxytryptamine receptor 1A (Rattus norvegicus, UniProt P19327); format: cell membranes, CHO-K1, Membrane; further: in other assays of this panel Not Active means under 50% inhibition at 10 µM
T2 sequence (P19327 whole entry): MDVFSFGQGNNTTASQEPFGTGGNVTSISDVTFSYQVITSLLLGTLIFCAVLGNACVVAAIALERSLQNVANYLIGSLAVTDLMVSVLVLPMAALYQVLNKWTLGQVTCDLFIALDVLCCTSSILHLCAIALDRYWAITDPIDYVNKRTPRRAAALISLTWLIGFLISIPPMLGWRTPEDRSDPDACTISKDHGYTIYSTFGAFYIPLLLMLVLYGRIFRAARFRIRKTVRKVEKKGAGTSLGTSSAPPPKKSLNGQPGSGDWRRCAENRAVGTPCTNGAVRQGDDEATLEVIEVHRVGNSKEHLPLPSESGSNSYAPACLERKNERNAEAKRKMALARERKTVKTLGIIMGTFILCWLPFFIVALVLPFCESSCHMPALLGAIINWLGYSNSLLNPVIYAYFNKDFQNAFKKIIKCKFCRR

[6] = target: T3, Progesterone receptor (Bos taurus, UniProt Q690N0); assay: DRUGMATRIX: Progesterone radioligand binding (ligand: [3H] R-5020); format: tissue-based, Uterus; details: Not Active = under 50% inhibition at 10 µM
T3 sequence (Q690N0 whole entry): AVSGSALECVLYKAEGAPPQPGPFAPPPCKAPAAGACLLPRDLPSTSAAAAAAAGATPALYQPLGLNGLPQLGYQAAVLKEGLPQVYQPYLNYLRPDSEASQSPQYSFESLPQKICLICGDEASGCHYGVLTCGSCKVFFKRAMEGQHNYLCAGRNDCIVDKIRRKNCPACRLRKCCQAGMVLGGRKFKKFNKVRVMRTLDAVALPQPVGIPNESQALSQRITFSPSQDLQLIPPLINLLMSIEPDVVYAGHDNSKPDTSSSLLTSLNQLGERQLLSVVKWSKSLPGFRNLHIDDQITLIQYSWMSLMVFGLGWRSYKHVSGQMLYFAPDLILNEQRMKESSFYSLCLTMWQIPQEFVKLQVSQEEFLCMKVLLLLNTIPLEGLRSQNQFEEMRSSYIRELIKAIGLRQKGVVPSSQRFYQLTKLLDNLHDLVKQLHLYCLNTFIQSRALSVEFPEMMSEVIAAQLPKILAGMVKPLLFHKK

C-C chemokine receptor type 5, sequence (P51681 whole entry): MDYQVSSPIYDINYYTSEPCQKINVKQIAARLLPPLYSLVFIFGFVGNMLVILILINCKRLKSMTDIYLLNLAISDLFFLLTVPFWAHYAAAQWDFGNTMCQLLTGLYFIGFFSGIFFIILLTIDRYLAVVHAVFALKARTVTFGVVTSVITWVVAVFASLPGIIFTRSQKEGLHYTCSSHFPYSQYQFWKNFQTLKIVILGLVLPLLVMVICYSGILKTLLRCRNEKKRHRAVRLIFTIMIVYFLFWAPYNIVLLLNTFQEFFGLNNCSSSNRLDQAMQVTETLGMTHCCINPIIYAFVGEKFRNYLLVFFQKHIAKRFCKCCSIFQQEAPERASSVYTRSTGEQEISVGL

Compound	IC50 [1]	Ki [1]	IC50 [2]	IC50 [3]	Ki [3]	IC50 [4]	IC50 ([5]; cho-k1)	IC50 [6]	Ki [2]	IC50 ([4]; read-out: IC50) [nM]	Ki ([5]; cho-k1)	Ki [6]	Ki [4]	IC50 ([5]; read-out: IC50) [nM]	Ki ([5]; read-out: Ki) [nM]	IC50 ([6]; read-out: IC50) [nM]	Ki ([6]; read-out: Ki) [nM]
COc1ccc2cc3[n+](cc2c1OC)CCc1cc2c(cc1-3)OCO2.[Cl-] [BERBERINE CHLORIDE]	Not Active	Not Active	Not Active	Not Active	Not Active	Not Active	Not Active	Not Active									
GRAMICIDIN	Not Active	Not Active	Not Active	Not Active	Not Active		Not Active	Not Active	Not Active	774	Not Active	Not Active					
COc1cc([C@@H]2c3cc4c(cc3[C@@H](O[C@@H]3O[C@@H]5CO[C@@H](C)O[C@H]5[C@H](O)[C@H]3O)[C@H]3COC(=O)[C@H]23)OCO4)cc(OC)c1O [ETOPOSIDE]	Not Active	Not Active	Not Active	Not Active	Not Active	Not Active	Not Active	Not Active									
CCC1(C)CC(=O)NC1=O (centres undefined) [ETHOSUXIMIDE]	Not Active	Not Active	Not Active	Not Active	Not Active	Not Active	Not Active	Not Active									
Cc1nnc2n1-c1ccc(Cl)cc1C(c1ccccc1)=NC2 [ALPRAZOLAM]	Not Active	Not Active	Not Active	Not Active	Not Active	Not Active	Not Active	Not Active									
CC(C)=CCC/C(C)=C/CO [GERANIOL]	Not Active	Not Active	Not Active	Not Active	Not Active	Not Active	Not Active	Not Active									
COc1ccc(C(=O)N2CCCC2=O)cc1	Not Active	Not Active	Not Active	Not Active	Not Active	Not Active	Not Active	Not Active									
GENTAMICIN	Not Active	Not Active	Not Active	Not Active	Not Active	Not Active	Not Active	Not Active	Not Active		Not Active	Not Active	Not Active				
CC(C)NNC(=O)c1ccncc1 [IPRONIAZID]	Not Active	Not Active	Not Active	Not Active	Not Active	Not Active	Not Active	Not Active									
CCCNCC(O)COc1ccccc1C(=O)CCc1ccccc1 (centres undefined) [PROPAFENONE]	Not Active	Not Active	Not Active	Not Active	Not Active	Not Active		Not Active						1640	935		
O=c1cc(N2CCOCC2)oc2c(-c3ccccc3)cccc12 [LY-294002]	Not Active	Not Active	Not Active	Not Active	Not Active	Not Active	Not Active	Not Active									
NCCCC(O)(P(=O)(O)O)P(=O)(O)O [ALENDRONIC ACID]	Not Active	Not Active	Not Active	Not Active	Not Active	Not Active	Not Active	Not Active									
Nc1ccc2c3c(cccc13)C(=O)NC2=O	Not Active	Not Active	Not Active	Not Active	Not Active	Not Active	Not Active	Not Active									
CC(C)(C)NC(=O)[C@H]1CC[C@H]2[C@@H]3CC[C@H]4NC(=O)C=C[C@]4(C)[C@H]3CC[C@]12C [FINASTERIDE]	Not Active	Not Active	Not Active	Not Active	Not Active	Not Active	Not Active	Not Active									
CC[C@H](C)[C@H]1O[C@]2(C=C[C@@H]1C)C[C@@H]1C[C@@H](C/C=C(\C)[C@@H](O[C@H]3C[C@H](OC)[C@@H](O[C@H]4C[C@H](OC)[C@@H](O)[C@H](C)O4)[C@H](C)O3)[C@@H](C)/C=C/C=C3\CO[C@@H]4[C@H](O)C(C)=C[C@@H](C(=O)O1)[C@]34O)O2.CO[C@H]1C[C@H](O[C@H]2[C@H](C)O[C@@H](O[C@@H]3/C(C)=C/C[C@@H]4C[C@@H](C[C@]5(C=C[C@H](C)[C@@H](C(C)C)O5)O4)OC(=O)[C@@H]4C=C(C)[C@@H](O)[C@H]5OC/C(=C\C=C\[C@@H]3C)[C@]54O)C[C@@H]2OC)O[C@@H](C)[C@@H]1O [ABAMECTIN]	Not Active	Not Active	Not Active	Not Active	Not Active	Not Active	Not Active	Not Active									
Cn1c(=O)c2[nH]cnc2n(C)c1=O.Cn1c(=O)c2[nH]cnc2n(C)c1=O.NCCN [AMINOPHYLLINE]	Not Active	Not Active	Not Active	Not Active	Not Active	Not Active	Not Active	Not Active									
C#C[C@]1(OC(C)=O)CC[C@H]2[C@@H]3CCC4=C[C@@H](OC(C)=O)CC[C@@H]4[C@H]3CC[C@@]21C [ETHYNODIOL DIACETATE]	Not Active	Not Active	Not Active	Not Active	Not Active	Not Active	Not Active									160	21
CN/C(=N\CCSCc1nc[nH]c1C)NC#N [CIMETIDINE]	Not Active	Not Active	Not Active	Not Active	Not Active	Not Active	Not Active	Not Active									
COc1ccc2c3c1O[C@H]1C[C@@H](O)C=C[C@@]31CCN(C)C2 [GALANTAMINE]	Not Active	Not Active	Not Active	Not Active	Not Active	Not Active	Not Active	Not Active									
OC(CCCN1CCCCC1)(c1ccccc1)c1ccccc1 [DIPHENIDOL]	Not Active	Not Active	Not Active	Not Active	Not Active	Not Active	Not Active	Not Active									
CCC(=O)O[C@]1(C(=O)CCl)[C@@H](C)C[C@H]2[C@@H]3CCC4=CC(=O)C=C[C@]4(C)[C@@]3(F)[C@@H](O)C[C@@]21C [CLOBETASOL PROPIONATE]	Not Active	Not Active	Not Active	Not Active	Not Active	Not Active	Not Active									12	1.52
CCCN(CCC)S(=O)(=O)c1ccc(C(=O)O)cc1 [PROBENECID]	Not Active	Not Active	Not Active	Not Active	Not Active	Not Active	Not Active	Not Active									
O=C(O)CCNC(=O)c1ccccc1 [BETAMIPRON]	Not Active	Not Active	Not Active	Not Active	Not Active	Not Active	Not Active	Not Active									

— ChEMBL document CHEMBL1909046, “DrugMatrix in vitro pharmacology data”
